In ChEMBL document CHEMBL5223106, “Targeting non-alcoholic fatty liver disease: Design, X-ray co-crystal structure and synthesis of 'first-in-kind' inhibitors of serine/threonine kinase25” (Bioorg Med Chem Lett, 2022):
Each block holds one molecule with its values, some of them ahead of it. The source made the active and inactive calls. The calls are words filed in the database; no cut-off is given here.

Columns and labels:
[1] = molecular target: T1, Serine/threonine-protein kinase 25 (Homo sapiens, UniProt O00506); experiment: Inhibition of STK25 (unknown origin) by FRET assay
[2] = molecular target: T1, Serine/threonine-protein kinase 25; experiment: Inhibition of STK25 (unknown origin)
Target sequence in this assay (O00506 whole entry): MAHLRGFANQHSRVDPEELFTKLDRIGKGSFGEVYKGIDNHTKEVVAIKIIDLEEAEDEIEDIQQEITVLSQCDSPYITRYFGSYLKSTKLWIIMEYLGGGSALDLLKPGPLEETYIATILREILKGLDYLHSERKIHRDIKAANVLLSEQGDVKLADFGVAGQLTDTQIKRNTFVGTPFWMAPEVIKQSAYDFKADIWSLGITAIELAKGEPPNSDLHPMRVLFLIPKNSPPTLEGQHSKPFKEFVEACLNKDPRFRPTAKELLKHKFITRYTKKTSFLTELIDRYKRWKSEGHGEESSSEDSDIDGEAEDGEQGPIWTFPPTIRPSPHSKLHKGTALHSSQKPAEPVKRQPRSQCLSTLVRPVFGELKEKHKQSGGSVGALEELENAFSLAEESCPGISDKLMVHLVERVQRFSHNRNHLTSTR

[3] = Clearance in mouse microsomes; type: ADME, Microsome
[4] = Clearance in human microsomes; type: ADME, Microsome
[5] = molecular target: T1, Serine/threonine-protein kinase 25; experiment: Inhibition of STK25 (unknown origin) by cellular target engagement assay
Target sequence in this assay (O00506 whole entry): as above

[6] = Permeability of the compound in human Caco-2 cells at 10 uM; type: ADME, cell-based; details: caco-2, 10 µM
[7] = Efflux ratio of permeability across basolateral to apical side over apical to basolateral side in human Caco-2 cells; type: ADME, cell-based
[8] = Plasma protein binding in mouse plasma assessed as free fraction; type: ADME, cell-free
[9] = Cytotoxicity against human HepG2 cells assessed as cell growth inhibition; type: toxicity, cell-based
[10] = Solubility of compound; type: physicochemical

SMILES: CC(C)(C)c1cc(NC(=O)c2nnn3c2CO[C@@H](Cc2ccccc2)C3)n[nH]1
inhibition [1]: inactive

SMILES: CC(C)(C)c1cc(NC(=O)c2nnn3c2CO[C@H](c2ccccc2)C3)n[nH]1
inhibition [1]: inactive

SMILES: CC(C)(C)c1cc(NC(=O)c2nnn3c2CO[C@H](Cc2ccccc2)C3)n[nH]1
inhibition [1]: inactive

SMILES: CC(C)(C)c1cc(NC(=O)c2nnn3c2CO[C@@H](c2ccccc2)C3)n[nH]1
inhibition [1]: inactive

SMILES: CC(C)(C)c1cc(NC(=O)c2ccc(S(=O)(=O)N3CCCC3)cc2)n[nH]1
CL [3]: 145 mL/min/g | CL [4]: 75 mL/min/g | IC50 [1]: 228 nM | IC50 [5]: 211 nM | permeability [6]: 100% | efflux ratio [7]: 1 | fraction unbound [8]: 0.26 | IC50 [9]: > 100000 nM | solubility [10]: > 100 µM

Next, values leading:

IC50 [1]: 616 nM
SMILES: CCCCOc1ccc(C(=O)Nc2cc(C(C)(C)C)[nH]n2)cc1

IC50 [2]: 12 nM
SMILES: Cc1ccc(C(=O)Nc2cc(C(C)(C)C)n[nH]2)cc1-n1cc(-c2cncc(N3CCOCC3)c2)nn1

IC50 [2]: 460 nM
SMILES: O=C(Nc1c[nH]nc1-c1nc2cc(CN3CCOCC3)ccc2[nH]1)NC1CC1 [AT-9283]

IC50 [1]: 5160 nM
SMILES: CC(C)(C)c1cc(NC(=O)c2ccc(C(=O)N3CCCC3)cc2)n[nH]1

IC50 [1]: 865 nM
SMILES: CC(C)(C)c1cc(NC(=O)c2ccc(S(=O)(=O)NC3CCCC3)cc2)n[nH]1
